Type in all cases: cell-based
Experiment [1] deals with Staphylococcus aureus ATCC 25923. Nature of the experiment: MIC determination and synergy testing (Kull synergy index), microplate. The following applies: for QA, MIC of CHDM alone / QA/a: concentration of CHDM alone (QA, MIC): S. aureus; for QA/a: concentration of CHDM alone (QA, MIC): Table 49. A digest of the protocol:
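Broth microdilution in TSB (pH 7.3) for bacteria or SDB (pH 5.6) for C. albicans, 1:1.3333 serial dilutions covering one log in nine steps, agents alone or blended for synergy; triplicate wells inoculated to ~10^6 CFU/mL bacteria or ~10^5 CFU/mL yeast; uninoculated wells correct compound turbidity.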

Another experiment has as its system Aspergillus niger. Nature of the experiment: Test for adequate preservation in skin cream formulation (microorganism counts). The following applies: skin cream emulsion pH 6.75; concentration in label. The protocol:
(§1) A test for adequate preservation was carried out in accordance with the European Pharmacopea (6.0) and United States Pharmacopea (5.1). The testing consisted of the inoculation of a skin cream formulation serving as an emulsion substrate. The skin cream formulation having a pH of 6.75 was as follows: […]
(§2) This skin cream was the emulsion substrate, which formed the base for all further experimentation.
(§3) For Examples 3.1 through 3.10, 390.0 g cream were weighed into a 600-ml beaker. The cream was stirred at room temperature while adding the ingredients specified in Table 51. Each sample was stirred for 2 hours, then placed in the refrigerator until inoculated.
(§4) For Examples 3.11 and 3.12, 179.4 g cream were weighed into a 400-ml beaker. The cream was stirred at room temperature while adding the specified ingredients.
(§5) The samples of Examples 3.1 through 3.10 were challenged with specific organisms (see Table 51) to produce a contamination of between 1.0×10^5 cfu/g and 1.0×10^6 cfu/g. The actual inoculation counts resulting from these challenges were immediately determined by diluting in sterile buffered water and (spread plate method) plating for enumeration.
(§6) Challenge organisms were prepared in Mueller-Hinton broth, allowed to grow for 72 hours at 35° C.+/−2° C., centrifuged at 2500 rpm for 5 minutes, and the supernatant broth was removed. The microbial pellet was then re-diluted with sterile buffered water to a turbidity that matched previous 1.0×10^8 cfu/g concentrations of that organism's specific growth curve.
(§7) The test emulsions were maintained within a specific temperature range optimal for the organisms; 35° C.+/2° C. for the bacteria and 22° C.+/−2° C. for the fungi, for the first three days. They were kept at ambient room temperature for the subsequent time periods.
(§8) Subculture samples of approximately 1 gram were taken for counts at 7, 14, and 30 days and incubated under optimal conditions and nutrition for no less than 5 days. Subcultures were diluted 1:2, 1:10, 1:100, . . . , 1:10,000 and plated using the spread plate method onto Plate Count Agar and onto SAB Dextrose Agar for the Candida and Aspergillus species; and incubated as follows: 35° C.+/−2° C. for the Plate Count Agar and 22° C.+/−2° C. for the SAB Dextrose plates of Candida albicans and Aspergillus niger. Negative results were not reported before 7 days incubation, and counts were performed after no less than 5 days incubation. Because of the high viscosity of the test emulsion, at least a 1:2 dilution was required to perform the spread plate subcultures. 0-30 counts represent a 1 to 2 dilution, numbers […] a 1:10 dilution; and the rest represent dilutions of 1:100, 1:1000, or 1:10,000. […]

The test system of the next experiment is Pseudomonas aeruginosa. Described as above. The following applies: skin cream emulsion pH 6.75; concentration in label. The method, then:
as §1, §2, §3, §4, §5, §6, §7, §8

Structures are written as SMILES. Several values for one entry are separate records, joined by “and”; a condition that tells them apart may be missing. Equal values may be shown once.

As for `OCC1CCC(CO)CC1` (stereo not shown) [1,4-CHDM, 1,4-cyclohexanedimethanol], the QA/a in experiment [1] (CHDM alone (QA) or in combination with BA:DHA (a), plate 139D, day 1) was 3.11; in experiment [1] (CHDM alone (QA) or in combination with BA:DHA (a), plate 139D, day 2), 4.15; in experiment [1] (CHDM alone (QA) or in combination with BA:DHA (a), plate 220D, day 1) it was 3.30; in experiment [1] (CHDM alone (QA) or in combination with BA:DHA (a), plate 220D, day 2), 3.30; in experiment [1] (CHDM alone (QA) or in combination with BA:DHA (a), plate 235D, day 1) it was 5.00; in experiment [1] (CHDM alone (QA) or in combination with BA:DHA (a), plate 235D, day 2), 5.00. Besides, the QA/a in experiment [1] (CHDM: MIC alone (QA) or conc. in combination with CP (a), plate 138D, day 1) is 3.11; in experiment [1] (CHDM: MIC alone (QA) or conc. in combination with CP (a), plate 138D, day 2), 4.15; in experiment [1] (CHDM: MIC alone (QA) or conc. in combination with MIT (a), plate 137D, day 2), 4.15; in experiment [1] (CHDM: MIC alone (QA) or conc. in combination with MP (a), plate 166D, day 1) it was 3.30; in experiment [1] (CHDM: MIC alone (QA) or conc. in combination with MP (a), plate 166D, day 2), 3.30. Besides, the “QA, MIC of CHDM alone” value in experiment [1] (day 1 of incubation, plate 125D (CG series)) is 3.11 weight percent; in experiment [1] (day 1 of incubation, plates 124D, 219D, 234D (PE series)), 3.30 weight percent and 3.75 weight percent and 3.11 weight percent; in experiment [1] (day 2 of incubation, plate 125D (CG series)), 3.11 weight percent; in experiment [1] (day 2 of incubation, plates 124D, 219D (PE series)), 3.11 weight percent and 3.30 weight percent. For the same compound, the figures for the “QA/a: concentration of CHDM alone (QA, MIC)” value in experiment [1] (Day 1) and in experiment [1] (Day 2) were 3.11 weight percent and 4.15 weight percent, respectively. For the same compound, in the experiment on Aspergillus niger, the “Antimicrobial activity against Aspergillus niger in skin cream (in words)” value is recorded as “significant activity”. Besides, the “Antimicrobial activity against Pseudomonas aeruginosa in skin cream (in words)” value in the experiment on Pseudomonas aeruginosa is reported as “significant activity”.

These data come from patent US20110028566A1, “COMPOSITIONS AND PRODUCTS CONTAINING CYCLOALIPHATIC DIOL ANTIMICROBIAL AGENTS AND METHODS OF USING THE COMPOSITIONS AND PRODUCTS” (EASTMAN CHEMICAL COMPANY, priority 2009, published 2011).
